Target: human NK-3 receptor (Homo sapiens (Human), UniProt P29371)
Experiment: 3H-SB222200 binding competition assay with human NK-3 receptor
Conditions: 3H-SB222200 displacement, CHO cell membranes expressing human NK3 receptor; read-out: Ki range
Experimental: The affinity of compounds of the invention for the tachykinin receptors was determined by measuring the ability of the compounds of the invention to displace a radiolabeled ligand from its specifics binding site.
^3H-SB222200 Binding Competition Assay with Human NK-3 Receptor
The ability of the compounds of the invention to inhibit the binding of the NK-3 receptor selective antagonist SB222200 was assessed by an in vitro radioligand binding assay. Membranes were prepared from Chinese hamster ovary recombinant cells which express the human NK3 receptor. The membranes were incubated with 5 nM ^3H-SB222200_(ARC) in a HEPES 25 mM/NaCl 0.1M/CaCl2 1 mM/MgCl2 5 Mm/BSA 0.5%/Saponin 10 μg/ml buffer at pH 7.4 and various concentrations of the compounds of the invention. The amount of tritiated SB222200 bound to the receptor was determined after filtration by the quantification of membrane associated radioactivity using the TopCount-NXT reader (Packard). […] In Table 3 biological results obtained using the ^3H-SB222200 binding competition assay with compounds of the invention are set out in tabulated form. In this table the calculated Ki is given. The Ki value obtained (in accordance with the protocol set forth above) is represented as follows: “+++” means Ki<500 nM; “++” means 500 nM≤Ki≤1 μM; “+” means 1 μM<Ki≤5 μM; “#” means Ki>5 μM.

human NK-3 receptor, sequence (P29371 whole entry): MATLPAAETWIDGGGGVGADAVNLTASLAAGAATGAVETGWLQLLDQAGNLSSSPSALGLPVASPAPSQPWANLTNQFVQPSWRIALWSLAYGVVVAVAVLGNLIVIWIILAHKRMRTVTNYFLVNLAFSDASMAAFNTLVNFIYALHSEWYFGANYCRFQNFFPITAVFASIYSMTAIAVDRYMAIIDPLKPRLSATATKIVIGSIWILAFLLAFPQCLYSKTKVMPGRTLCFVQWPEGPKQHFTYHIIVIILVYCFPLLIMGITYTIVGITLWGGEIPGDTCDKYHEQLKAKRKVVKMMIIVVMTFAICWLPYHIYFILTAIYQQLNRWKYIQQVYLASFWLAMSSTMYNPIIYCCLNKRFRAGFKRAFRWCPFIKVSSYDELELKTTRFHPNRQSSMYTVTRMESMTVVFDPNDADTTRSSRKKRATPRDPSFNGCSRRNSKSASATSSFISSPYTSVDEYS

| SMILES | Ki |
| --- | --- |
| CC1c2nnc(-c3csc(N4CCOCC4)n3)n2CCN1C(=O)c1ccc(-c2ccccc2)cc1 (centres unmarked) [Compound 46, [1,1′-biphenyl]-4-yl(8-methyl-3-(2-morpholinothiazol-4-yl)-5,6-dihydro-[1,2,4]triazolo[4,3-a]pyrazin-7(8H)-yl)methanone] | < 500 nM |
| CC(C)C1c2nnc(-c3csc(-c4ccccc4)n3)n2CCN1C(=O)c1ccc(F)cc1 (centres unmarked) [Compound 43, (4-fluorophenyl)(8-isopropyl-3-(2-phenylthiazol-4-yl)-5,6-dihydro-[1,2,4]triazolo[4,3-a]pyrazin-7(8H)-yl)methanone] | 1000 to 5000 nM |
| CC1c2nnc(-c3nc(-c4ccc(F)cc4)no3)n2CCN1C(=O)c1ccc(-c2cccs2)cc1 (centres unmarked) [Compound 209, (3-(3-(4-fluorophenyl)-1,2,4-oxadiazol-5-yl)-8-methyl-5,6-dihydro-[1,2,4]triazolo[4,3-a]pyrazin-7(8H)-yl)(4-(thiophen-2-yl)phenyl)methanone] | < 500 nM |
| CC(C)Cc1nc(-c2nnc3n2CCN(C(=O)c2ccc(-c4cccs4)cc2)C3)cs1 [Compound 256, (3-(2-isobutylthiazol-4-yl)-5,6-dihydro-[1,2,4]triazolo[4,3-a]pyrazin-7(8H)-yl)(4-(thiophen-2-yl)phenyl)methanone] | < 500 nM |
| O=C(c1ccc(F)cc1)N1CCn2c(nnc2-c2cccc(C(F)(F)F)n2)C1 [Compound 39, (4-fluorophenyl)(3-(6-(trifluoromethyl)pyridin-2-yl)-5,6-dihydro-[1,2,4]triazolo[4,3-a]pyrazin-7(8H)-yl)methanone] | 500 to 1000 nM |
| O=C(c1ccc(-c2cccs2)cc1)N1CCn2c(nnc2-c2csc(N3CCOCC3)n2)C1 [Compound 55, (3-(2-morpholinothiazol-4-yl)-5,6-dihydro-[1,2,4]triazolo[4,3-a]pyrazin-7(8H)-yl)(4-(thiophen-2-yl)phenyl)methanone] | < 500 nM |
| O=C(c1ccc(-c2cccs2)cc1)N1CCn2c(nnc2-c2csc(-c3ccc(F)cc3F)n2)C1 [Compound 170, (3-(2-(2,4-difluorophenyl)thiazol-4-yl)-5,6-dihydro-[1,2,4]triazolo[4,3-a]pyrazin-7(8H)-yl)(4-(thiophen-2-yl)phenyl)methanone] | < 500 nM |
| O=C(c1ccc(F)cc1)N1CCn2c(nnc2-c2csc(Cc3ccc(Cl)cc3)n2)C1 [Compound 188, (3-(2-(4-chlorobenzyl)thiazol-4-yl)-5,6-dihydro-[1,2,4]triazolo[4,3-a]pyrazin-7(8H)-yl)(4-fluorophenyl)methanone] | 500 to 1000 nM |
| O=C(c1ccc(-c2ccccc2)cc1)N1CCn2c(nnc2-c2csc(CS(=O)(=O)c3ccc(Cl)cc3)n2)C1 [Compound 199, [1,1′-biphenyl]-4-yl(3-(2-(((4-chlorophenyl)sulfonyl)methyl)thiazol-4-yl)-5,6-dihydro-[1,2,4]triazolo[4,3-a]pyrazin-7(8H)-yl)methanone] | 1000 to 5000 nM |
| O=C(c1ccc(-c2cccs2)cc1)N1CCn2c(nnc2-c2csc(-c3ccc(F)cc3)n2)C1 [Compound 73, (3-(2-(4-fluorophenyl)thiazol-4-yl)-5,6-dihydro-[1,2,4]triazolo[4,3-a]pyrazin-7(8H)-yl)(4-(thiophen-2-yl)phenyl)methanone] | < 500 nM |
| O=C(c1ccc(F)cc1)N1CCn2c(nnc2-c2n[nH]c(-c3ccccc3)n2)C1 [Compound 178, (4-fluorophenyl)(3-(5-phenyl-1H-1,2,4-triazol-3-yl)-5,6-dihydro-[1,2,4]triazolo[4,3-a]pyrazin-7(8H)-yl)methanone] | 1000 to 5000 nM |
| O=C(c1ccc(F)cc1)N1CCn2c(nnc2-c2cccc(N3CCOCC3)n2)C1 [Compound 38, (4-fluorophenyl)(3-(6-morpholinopyridin-2-yl)-5,6-dihydro-[1,2,4]triazolo[4,3-a]pyrazin-7(8H)-yl)methanone] | < 500 nM |
| CN1CCN(c2ccc(-c3nc(-c4nnc5n4CCN(C(=O)c4ccc(-c6cccs6)cc4)C5)cs3)cc2)CC1 [Compound 241, (3-(2-(4-(4-methylpiperazin-1-yl)phenyl)thiazol-4-yl)-5,6-dihydro-[1,2,4]triazolo[4,3-a]pyrazin-7(8H)-yl)(4-(thiophen-2-yl)phenyl)methanone] | < 500 nM |
| O=C(c1ccc(-c2cccs2)cc1)N1CCn2c(nnc2-c2cc(-c3ccccc3)n[nH]2)C1 [Compound 267, (3-(3-phenyl-1H-pyrazol-5-yl)-5,6-dihydro-[1,2,4]triazolo[4,3-a]pyrazin-7(8H)-yl)(4-(thiophen-2-yl)phenyl)methanone] | < 500 nM |
| Cc1cccc(-c2nnc3n2CCN(C(=O)c2ccc(F)cc2)C3)n1 [Compound 11, (4-fluorophenyl)(3-(6-methylpyridin-2-yl)-5,6-dihydro-[1,2,4]triazolo[4,3-a]pyrazin-7(8H)-yl)methanone] | < 500 nM |
| O=C(c1ccc(F)cc1)N1CCn2c(nnc2-c2csc(-c3cccc(C(F)(F)F)c3)n2)C1 [Compound 28, (4-fluorophenyl)(3-(2-(3-(trifluoromethyl)phenyl)thiazol-4-yl)-5,6-dihydro-[1,2,4]triazolo[4,3-a]pyrazin-7(8H)-yl)methanone] | < 500 nM |
| Cn1nc(-c2ccccc2)cc1-c1nnc2n1CCN(C(=O)c1ccc(F)cc1)C2 [Compound 225, (4-fluorophenyl)(3-(1-methyl-3-phenyl-1H-pyrazol-5-yl)-5,6-dihydro-[1,2,4]triazolo[4,3-a]pyrazin-7(8H)-yl)methanone] | 1000 to 5000 nM |
| O=C(c1cc(-c2ccc(Cl)cc2Cl)n[nH]1)N1CCn2c(nnc2-c2ccccn2)C1 [Compound 13, (3-(2,4-dichlorophenyl)-1H-pyrazol-5-yl)(3-(pyridin-2-yl)-5,6-dihydro-[1,2,4]triazolo[4,3-a]pyrazin-7(8H)-yl)methanone] | 1000 to 5000 nM |
| O=C(c1ccc(Cl)cc1)N1CCn2c(nnc2-c2ccccn2)C1 [Compound 2, (4-chlorophenyl)(3-(pyridin-2-yl)-5,6-dihydro-[1,2,4]triazolo[4,3-a]pyrazin-7(8H)-yl)methanone] | 1000 to 5000 nM |
| Cc1cccc(-c2nnc3n2CCN(C(=O)c2ccc(F)cc2)C3C)n1 (centres unmarked) [Compound 278, (4-fluorophenyl)(8-methyl-3-(6-methylpyridin-2-yl)-5,6-dihydro-[1,2,4]triazolo[4,3-a]pyrazin-7(8H)-yl)methanone] | < 500 nM |
| O=C(c1ccc(-c2cccs2)cc1)N1CCn2c(nnc2-c2cc(-c3ccccc3)nn2CCO)C1 [Compound 284, (3-(1-(2-hydroxyethyl)-3-phenyl-1H-pyrazol-5-yl)-5,6-dihydro-[1,2,4]triazolo[4,3-a]pyrazin-7(8H)-yl)(4-(thiophen-2-yl)phenyl)methanone] | < 500 nM |
| C[C@@H]1c2nnc(-c3csc(N4CCOCC4)n3)n2CCN1C(=O)c1ccc(-c2cccs2)cc1 [Compound 136, (R)-(8-methyl-3-(2-morpholinothiazol-4-yl)-5,6-dihydro-[1,2,4]triazolo[4,3-a]pyrazin-7(8H)-yl)(4-(thiophen-2-yl)phenyl)methanone] | < 500 nM |
| O=C(c1ccc(F)cc1)N1CCn2c(nnc2-c2csc(-c3ccc(F)cc3F)n2)C1 [Compound 29, (3-(2-(2,4-difluorophenyl)thiazol-4-yl)-5,6-dihydro-[1,2,4]triazolo[4,3-a]pyrazin-7(8H)-yl)(4-fluorophenyl)methanone] | < 500 nM |
| Cc1ccc(-c2nc(-c3nnc4n3CCN(C(=O)c3ccc(F)cc3)C4)cs2)cc1 [Compound 190, (4-fluorophenyl)(3-(2-(p-tolyl)thiazol-4-yl)-5,6-dihydro-[1,2,4]triazolo[4,3-a]pyrazin-7(8H)-yl)methanone] | < 500 nM |
| O=C(c1ccc(-c2cccs2)cc1)N1CCn2c(nnc2-c2csc(N3CCC(F)(F)CC3)n2)C1 [Compound 263, (3-(2-(4,4-difluoropiperidin-1-yl)thiazol-4-yl)-5,6-dihydro-[1,2,4]triazolo[4,3-a]pyrazin-7(8H)-yl)(4-(thiophen-2-yl)phenyl)methanone] | < 500 nM |
| Cc1sccc1-c1ccc(C(=O)N2CCn3c(-c4csc(-c5ccc(F)cc5)n4)nnc3[C@@H]2C)cc1 [Compound 233, (S)-(3-(2-(4-fluorophenyl)thiazol-4-yl)-8-methyl-5,6-dihydro-[1,2,4]triazolo[4,3-a]pyrazin-7(8H)-yl)(4-(2-methylthiophen-3-yl)phenyl)methanone] | < 500 nM |
| O=C(c1ccc(-c2ccccc2)cc1)N1CCn2c(nnc2-c2ccccn2)C1 [Compound 6, [1,1′-biphenyl]-4-yl(3-(pyridin-2-yl)-5,6-dihydro-[1,2,4]triazolo[4,3-a]pyrazin-7(8H)-yl)methanone] | 1000 to 5000 nM |
| O=C(c1ccc(F)cc1)N1CCn2c(nnc2-c2csc(-c3ccc(C(F)(F)F)cc3)n2)C1 [Compound 24, (4-fluorophenyl)(3-(2-(4-(trifluoromethyl)phenyl)thiazol-4-yl)-5,6-dihydro-[1,2,4]triazolo[4,3-a]pyrazin-7(8H)-yl)methanone] | < 500 nM |
| O=C(c1ccc(-c2cccs2)cc1)N1CCn2c(nnc2-c2csc(-c3cnccn3)n2)C1 [Compound 235, (3-(2-(pyrazin-2-yl)thiazol-4-yl)-5,6-dihydro-[1,2,4]triazolo[4,3-a]pyrazin-7(8H)-yl)(4-(thiophen-2-yl)phenyl)methanone] | < 500 nM |

— US10544150B2, “NK-3 receptor selective antagonist compounds, pharmaceutical composition and methods for use in NK-3 receptors mediated disorders” (Ogeda SA, priority 2010, dated 2020)
